Data published in ChEMBL document CHEMBL1149576, “Convergent synthesis and in vivo inhibitory effect on fat accumulation of (-)-ternatin, a highly N-methylated cyclic peptide” (2007).
Active and inactive are the calls of the source. No cut-off for these calls is given here.

Test system: 3T3-L1
Assay: Inhibition of fat accumulation in mouse 3T3L1 adipocytes
Format: functional, cell-based

How did the Activity turn out when `CC[C@H](C)[C@H]1NC(=O)[C@@H]([C@H](O)C(C)C)NC(=O)[C@@H](C)N(C)C(=O)[C@H](C)N(C)C(=O)[C@H](CC(C)C)NC(=O)[C@H](CC(C)C)N(C)C(=O)[C@H](C)N(C)C1=O` was run?
Its Activity is “Active”.
